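Assay format: 96-well plates, 48-hour exposure. GI50: concentration for 50% inhibition of growth.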 Calls of active or inactive are those of the source. Rule as the data show it: active = GI50 up to about 1.1 µM and inactive = higher.
How the values were obtained:
Experiment in all cases: NCI anticancer screen, dose series, 48 h
786-0 = tested on: 786-0
A498 = tested on: A498
A549 = tested on: A549
ACHN = tested on: ACHN
CAKI-1 = tested on: CAKI-1
CCRF-CEM = tested on: CCRF-CEM
COLO 205 = tested on: COLO 205
DLD-1 = tested on: DLD-1
DMS-114 = tested on: DMS-114
DMS-273 = tested on: DMS-273
EKVX = tested on: EKVX
HCC 2998 = tested on: HCC 2998
HCT-116 = tested on: HCT-116
HCT-15 = tested on: HCT-15
HL-60 = tested on: HL-60
HOP-18 = tested on: HOP-18
HOP-62 = tested on: HOP-62
HOP-92 = tested on: HOP-92
HT-29 = tested on: HT-29
IGROV-1 = tested on: IGROV-1
K562 = tested on: K562
KM-20L2 = tested on: KM-20L2
KM12 = tested on: KM12
LOX IMVI = tested on: LOX IMVI
LXFL 529 = tested on: LXFL 529
M14 = tested on: M14
M19-MEL = tested on: M19-MEL
MOLT-4 = tested on: MOLT-4
Malme-3M = tested on: Malme-3M
NCI-H226 = tested on: NCI-H226
NCI-H23 = tested on: NCI-H23
NCI-H460 = tested on: NCI-H460
NCI-H522 = tested on: NCI-H522
OVCAR-3 = tested on: OVCAR-3
OVCAR-4 = tested on: OVCAR-4
OVCAR-5 = tested on: OVCAR-5
OVCAR-8 = tested on: OVCAR-8
RPMI-8226 = tested on: RPMI-8226
RXF 393 = tested on: RXF 393
RXF 631 = tested on: RXF 631
SF-268 = tested on: SF-268
SF-295 = tested on: SF-295
SF-539 = tested on: SF-539
SK-MEL-28 = tested on: SK-MEL-28
SK-MEL-2 = tested on: SK-MEL-2
SK-MEL-5 = tested on: SK-MEL-5
SK-OV-3 = tested on: SK-OV-3
SN12C = tested on: SN12C
SNB-19 = tested on: SNB-19
SNB-75 = tested on: SNB-75
SNB-78 = tested on: SNB-78
SR = tested on: SR
SW-620 = tested on: SW-620
TK-10 = tested on: TK-10
U-251 = tested on: U-251
UACC-257 = tested on: UACC-257
UACC-62 = tested on: UACC-62
UO-31 = tested on: UO-31
XF498 = tested on: XF498

`COc1ccc(/C=C/C(=O)c2sc(-n3nc(-c4ccccc4)cc3-c3ccccc3)nc2C)cc1` was tested, and the GI50 (786-0) was > 10 µM (inactive), the GI50 (A498) was > 10 µM (inactive) and the GI50 (A549) was > 10 µM (inactive). The GI50 (ACHN) was > 10 µM (inactive), the GI50 (CAKI-1) was 55.2 µM (inactive) and the GI50 (CCRF-CEM) was > 10 µM (inactive). For the same compound, the GI50 (COLO 205) was > 10 µM (inactive), the GI50 (DLD-1) was > 10 µM (inactive) and the GI50 (DMS-114) was 31.3 µM (inactive). The GI50 (DMS-273) was > 10 µM (inactive), the GI50 (EKVX) was 6.25 µM (inactive) and the GI50 (HCC 2998) was > 10 µM (inactive). For the same compound, the GI50 (HCT-116) was > 10 µM (inactive), the GI50 (HCT-15) was 75.2 µM and the GI50 (HL-60) was > 10 µM (inactive). For the same compound, the GI50 (HOP-18) was > 10 µM (inactive), the GI50 (HOP-62) was > 10 µM (inactive) and the GI50 (HOP-92) was > 10 µM (inactive). The GI50 (HT-29) was 30.5 µM (inactive), the GI50 (IGROV-1) was > 10 µM (inactive) and the GI50 (K562) was 52.2 µM (inactive). The GI50 (KM-20L2) was 77.4 µM (inactive), the GI50 (KM12) was 76.4 µM (inactive) and the GI50 (LOX IMVI) was > 10 µM (inactive). The GI50 (LXFL 529) was > 10 µM (inactive), the GI50 (M14) was > 10 µM (inactive) and the GI50 (M19-MEL) was > 10 µM (inactive). For the same compound, the GI50 (MOLT-4) was 56.6 µM (inactive), the GI50 (Malme-3M) was > 10 µM (inactive) and the GI50 (NCI-H226) was > 10 µM (inactive). The GI50 (NCI-H23) was > 10 µM (inactive), the GI50 (NCI-H460) was > 10 µM (inactive) and the GI50 (NCI-H522) was 63.1 µM (inactive). For the same compound, the GI50 (OVCAR-3) was 62.5 µM (inactive), the GI50 (OVCAR-4) was 43.6 µM (inactive) and the GI50 (OVCAR-5) was > 10 µM (inactive). The GI50 (OVCAR-8) was > 10 µM (inactive), the GI50 (RPMI-8226) was 39.7 µM (inactive) and the GI50 (RXF 393) was > 10 µM (inactive). The GI50 (RXF 631) was > 10 µM (inactive), the GI50 (SF-268) was > 10 µM (inactive) and the GI50 (SF-295) was > 10 µM (inactive). The GI50 (SF-539) was > 10 µM (inactive), the GI50 (SK-MEL-28) was > 10 µM (inactive) and the GI50 (SK-MEL-2) was > 10 µM (inactive). The GI50 (SK-MEL-5) was 52.1 µM (inactive), the GI50 (SK-OV-3) was > 10 µM (inactive) and the GI50 (SN12C) was 75.9 µM (inactive). The GI50 (SNB-19) was > 10 µM (inactive), the GI50 (SNB-75) was 8.43 µM (inactive) and the GI50 (SNB-78) was > 10 µM (inactive). For the same compound, the GI50 (SR) was > 10 µM (inactive), the GI50 (SW-620) was > 10 µM (inactive) and the GI50 (TK-10) was > 10 µM (inactive). The GI50 (U-251) was 62.2 µM (inactive), the GI50 (UACC-257) was 79.1 µM (inactive) and the GI50 (UACC-62) was > 10 µM (inactive). For the same compound, the GI50 (UO-31) was 31.6 µM (inactive) and the GI50 (XF498) was 33.7 µM (inactive).

With `CC(C)c1cccc(C(C)C)c1/N=C(/N)C#N` the GI50 (786-0) was > 43.6 µM (inactive), the GI50 (A498) was > 100 µM (inactive) and the GI50 (A549) was > 44.2 µM (inactive). For the same compound, the GI50 (ACHN) was > 100 µM (inactive), the GI50 (CAKI-1) was > 100 µM (inactive) and the GI50 (CCRF-CEM) was 30.5 µM (inactive). The GI50 (COLO 205) was 40.6 µM (inactive), the GI50 (DLD-1) was 37 µM (inactive) and the GI50 (DMS-114) was 29.9 µM (inactive). For the same compound, the GI50 (DMS-273) was > 43 µM (inactive), the GI50 (EKVX) was > 100 µM (inactive) and the GI50 (HCC 2998) was > 100 µM (inactive). The GI50 (HCT-116) was > 44.6 µM (inactive), the GI50 (HCT-15) was 37.2 µM and the GI50 (HL-60) was 26.7 µM (inactive). For the same compound, the GI50 (HOP-18) was > 86.1 µM (inactive), the GI50 (HOP-62) was > 100 µM (inactive) and the GI50 (HOP-92) was > 41.5 µM (inactive). For the same compound, the GI50 (HT-29) was > 58.6 µM (inactive), the GI50 (IGROV-1) was > 100 µM (inactive) and the GI50 (K562) was 25.4 µM (inactive). For the same compound, the GI50 (KM-20L2) was > 100 µM (inactive), the GI50 (KM12) was > 56 µM (inactive) and the GI50 (LOX IMVI) was 25.2 µM (inactive). For the same compound, the GI50 (LXFL 529) was > 67.1 µM (inactive), the GI50 (M14) was > 100 µM (inactive) and the GI50 (M19-MEL) was > 60 µM (inactive). The GI50 (MOLT-4) was > 45.9 µM (inactive), the GI50 (Malme-3M) was > 100 µM (inactive) and the GI50 (NCI-H226) was > 100 µM (inactive). The GI50 (NCI-H23) was > 100 µM (inactive), the GI50 (NCI-H460) was > 44.9 µM (inactive) and the GI50 (NCI-H522) was 38 µM (inactive). For the same compound, the GI50 (OVCAR-3) was > 100 µM (inactive), the GI50 (OVCAR-4) was > 100 µM (inactive) and the GI50 (OVCAR-5) was > 100 µM (inactive). The GI50 (OVCAR-8) was > 100 µM (inactive), the GI50 (RPMI-8226) was 34.4 µM (inactive) and the GI50 (RXF 393) was 53.8 µM (inactive). The GI50 (RXF 631) was > 100 µM (inactive), the GI50 (SF-268) was > 100 µM (inactive) and the GI50 (SF-295) was > 100 µM (inactive). The GI50 (SF-539) was 22.8 µM (inactive), the GI50 (SK-MEL-28) was > 100 µM (inactive) and the GI50 (SK-MEL-2) was > 90.6 µM (inactive). For the same compound, the GI50 (SK-MEL-5) was > 93.5 µM (inactive), the GI50 (SK-OV-3) was > 100 µM (inactive) and the GI50 (SN12C) was > 100 µM (inactive). For the same compound, the GI50 (SNB-19) was > 100 µM (inactive), the GI50 (SNB-75) was > 100 µM (inactive) and the GI50 (SNB-78) was 99.1 µM (inactive). The GI50 (SR) was 46.2 µM (inactive), the GI50 (SW-620) was 22.1 µM (inactive) and the GI50 (TK-10) was > 100 µM (inactive). For the same compound, the GI50 (U-251) was 34 µM (inactive), the GI50 (UACC-257) was > 46.6 µM (inactive) and the GI50 (UACC-62) was > 50.2 µM (inactive). For the same compound, the GI50 (UO-31) was > 100 µM (inactive) and the GI50 (XF498) was > 100 µM (inactive).

— ChEMBL document CHEMBL1201862, “PubChem BioAssay data set” (2004)
